According to patent publication US20240343706A1, “PIPERIDINE-2,6-DIONE DERIVATIVES WHICH BIND TO CEREBLON, AND METHODS OF USE THEREOF” (Captor Therapeutics S.A., priority 2019, published 2024):

Key:
[1] = target: CRBN-DDB1 protein complex (Homo sapiens, UniProt Q96SW2); experiment: Fluorescence polarization (FP) assay, displacement of Cy5-labelled thalidomide; settings: 25 nM CRBN-DDB1, 5 nM Cy5-labelled thalidomide, read-out: CRBN binding Ki
Outline: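 CRBN-DDB1 mixed with Cy5-thalidomide tracer and test compound, then incubated 60 min at room temperature (20-25 °C) before fluorescence polarization read-out. Ki derived from tracer displacement across a range of compound concentrations.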

[2] = target: BRD4-compound-CRBN/DDB1 ternary complex (Homo sapiens, UniProt O60885+Q96SW2); experiment: BRD4-compound-CRBN/DDB1 ternary complex formation, AlphaLISA homogenous assay; assay type: biochemical
Method: Biotinylated BRD4 and His-CRBN/DDB1 complex preparations were centrifugated to remove large aggregates (18000 rcf, 4° C., 5 min). Supernatant was collected and protein concentration was determined spectrophotometrically. The AlphaLISA bead-Protein mixtures were prepared: CRBN-acceptor bead (40 μg/ml Anti-6×His beads, 200 nM His-CRBN/DDB1 in PBS pH 7.4 supplemented with 0.1% Tween-20) and BRD4-donor bead (40 μg/ml Streptavidin beads, 40 nM BRD4 in PBS pH 7.4 supplemented with 0.1% Tween-20 and 2 mM DTT). Bead mixes were incubated in dark for 30 minutes at room temperature.
CRBN-acceptor bead mix and BRD4-donor bead mix were combined and dispensed into plate with compounds and DMSO only (10 μl of master mix per well). Final sample composition: 20 μg/ml Anti-6×His beads, 20 μg/ml Stretavidin beads, 100 nM His-CRBN/DDB1, 20 nM BRD4, 2% DMSO, 0.1% Tween-20, 1 mM DTT in PBS pH 7.4, +/− compound. Plate was sealed and covered to protect against light. Sample was mixed using Vibroturbulator. Subsequently, solutions in the plate was centrifugated and incubated in the dark for 30 minutes at 25° C. The plate seal was removed and sample luminescence was determined using Perkin Elmer Enspire plate reader. Readouts were assigned to certain compound concentration. Solutions without compound were utilized to determine background response (an average value) which subsequently was subtracted from raw data collected for compound mixtures.

[3] = target: T1, IKZF1-compound-CRBN/DDB1 ternary complex (Homo sapiens, UniProt Q96SW2); experiment: IKZF1-compound-CRBN/DDB1 ternary complex formation, AlphaLISA homogenous assay; assay type: biochemical; settings: AlphaLISA, 0.1, 1 and 10 μM, normalized to Lenalidomide response
T1 construct: Strep-tagged Ikaros (IKZF1 ZF2)
Method: Strep-tagged Ikaros (IKZF1 ZF2) and His-CRBN/DDB1 complex preparations were centrifugated to remove large aggregates (18000 rcf, 4° C., 5 min). Supernatant was collected and protein concentration was determined spectrophotometrically. The AlphaLISA bead-Protein mixtures were prepared: CRBN-acceptor bead (40 μg/ml Anti-6×His beads, 200 nM His-CRBN/DDB1 in PBS pH 7.4 supplemented with 0.1% Tween-20) Ikaros-donor bead mix (40 μg/ml Strep-Tactin beads, 800 nM IKZF1 in PBS pH 7.4 supplemented with 0.1% Tween-20 and 2 mM DTT). Bead mixes were incubated in dark for 30 minutes at room temperature. Tested compounds were dispensed into small volume AlphaPlate (Perkin Elmer) using Echo 555 liquid handler. CRBN-acceptor bead mix and Ikaros-donor bead mix were combined and dispensed into plate with compounds and DMSO only (10 μl of master mix per well). Final sample composition: 20 μg/ml Anti-6×His beads, 20 μg/ml Strep-Tactin beads, 100 nM His-CRBN/DDB1, 400 nM IKZF1, 2% DMSO, 0.1% Tween-20, 1 mM DTT in PBS pH 7.4, +/− compound. Plate was sealed and covered to protect against light. Sample was mixed using Vibroturbulator. […] The plate seal was removed and sample luminescence was determined using Perkin Elmer Enspire plate reader. Readouts were assigned to certain compound concentration. […] The average and standard deviation (SD) were calculated for each compound concentration point. […]

## Cc1sc2c(c1C)C(c1ccc(Cl)cc1)=N[C@@H](CC(=O)NCCCCCCCCNC(=O)Cn1c(C)nc3c(C(=O)NC4CCC(=O)NC4=O)cccc31)c1nnc(C)n1-2 (stereo partly drawn) [Compound 65, 1-(2-((8-(2-((S)-4-(4-chlorophenyl)-2,3,9-trimethyl-6H-thieno[3,2-f][1,2,4]triazolo[4,3-a][1,4]diazepin-6-yl)acetamido)octyl)amino)-2-oxoethyl)-N-(2,6-dioxopiperidin-3-yl)-2-methyl-1H-benzo[d]imidazole-4-carboxamide]
[1]
  Ki: < 1000 nM
[2]; 100 nM His-CRBN/DDB1, 20 nM BRD4, N = 3, read-out: TF50 (compound concentration which mediate the half of maximal response observed for Ternary Complex)
  EC50: 38.8 nM
[2]; area under curve 1.63-2500 nM, normalized to dBET1
  Normalized AUC to dBET1: 1.22
[3]
  IKZF1-compound-CRBN/DDB1 complex formation (in words): do not promote IKZF1-compound-CRBN/DDB1 complex formation
